Assay results from publication PMC2423185 (BMC Biochemistry, 2008).

Molecular target: T1, H. pylori arginase (RocF) (Helicobacter pylori, UniProt O25949)
T1 construct: gene HP_1399
T1 sequence (O25949 entry or part of it): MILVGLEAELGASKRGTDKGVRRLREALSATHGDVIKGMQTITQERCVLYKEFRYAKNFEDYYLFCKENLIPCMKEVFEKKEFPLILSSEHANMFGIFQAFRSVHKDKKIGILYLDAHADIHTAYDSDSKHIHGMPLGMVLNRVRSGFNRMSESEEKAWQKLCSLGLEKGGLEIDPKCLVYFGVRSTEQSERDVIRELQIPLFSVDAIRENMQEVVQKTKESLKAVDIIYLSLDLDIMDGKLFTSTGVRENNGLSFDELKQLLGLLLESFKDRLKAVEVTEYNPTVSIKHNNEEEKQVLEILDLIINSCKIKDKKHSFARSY

N=C(N)NCCC[C@H](N)C(=O)O [L-arginine]
L-ornithine formation by acidified ninhydrin, 515 nm: With E. coli (pBS-rocF), optimal arginase activity was with cobalt
